# Laboratory results published in PMC3638464, “The transcriptional regulator CprK detects chlorination by combining direct and indirect readout mechanisms” (Philosophical Transactions of the Royal Society B: …, 2013).
# Tests used:
# CprK [1] = biological target: CprK (Desulfitobacterium hafniense, UniProt B8FW11, C200S); test: cell-based; assay type: cell-based; conditions: for n (Hill coefficient) / apparent Kd: in vivo, Hill fit; for n (Hill coefficient) / increase in fluorescence levels (in words): CprK C200S; for increase in fluorescence levels (in words): in vivo reporter; for apparent Kd: E. coli JM109 DE3, pGFPUV-DB7 + CprK C200S, effector concentration at half Fmax
# Chain of CprK (Desulfitobacterium hafniense, UniProt B8FW11, C200S) (B8FW11 entry or part of it C200S): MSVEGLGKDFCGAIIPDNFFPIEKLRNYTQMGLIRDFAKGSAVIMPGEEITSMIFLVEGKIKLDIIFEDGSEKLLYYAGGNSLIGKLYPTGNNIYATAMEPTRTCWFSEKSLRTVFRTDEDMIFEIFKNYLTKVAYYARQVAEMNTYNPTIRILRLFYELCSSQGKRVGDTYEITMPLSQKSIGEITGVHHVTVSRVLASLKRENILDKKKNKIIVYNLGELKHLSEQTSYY
# Excerpt: Previous studies have shown that OCPA-dependent transcriptional activation by CprK can be monitored in Escherichia coli. To avoid any effects coupled to the redox state of the cell, we used a CprK C200S mutant as the basis for all our studies (referred to hereafter as CprK), as it was previously shown that oxidative disulfide bond formation involving C200 inactivates the regulator [23]. A region comprising 123 nucleotides of the upstream dehalobox promotor region of CprA1, containing CprK binding element dehalobox 7 (DB7), was cloned into pGFPUV in order to create a novel in vivo reporter system that makes use of an optimized variant of the green fluorescent protein (GFPUV) from Aequorea victoria. […] No significant increase in fluorescence levels could be detected in the presence of OCPA or similar compounds. […] By contrast, addition of 0.6 μM OCPA to the media leads to a nearly 10-fold increase in fluorescence levels, indicating CprK-mediated, OCPA-dependent transcriptional activation of the GFPUV gene occurs within the E. coli host. […] Our apparent Kd is the binding constant calculated as the concentration at which effector induces half Fmax (maximum fluorescence). […] In contrast to the direct measurement of formation of the CprK : OCPA complex for the in vitro experiment, the in vivo data probably report on the formation of the (CprK : OCPA : dehalobox : RNA polymerase) quaternary complex. […] It appears that under the conditions used for the pGFPUV-DB7-based system, the apparent Kd for OCPA is approximately 100-fold smaller than the established […] Kd values. […] It is important to keep in mind that transport processes could affect the intracellular OCPA concentrations across the membrane, although it would seem logical to assume this would affect OCPA and OCPA-like components in a similar manner. To confirm the apparent Kd value observed reflects inherent CprK affinity for the effector molecule, we measured the increase in fluorescence levels for a range of aromatic compounds.
# (§1) Overnight culture (150 μl) was plated onto 96-well optical bottom plates (Nunc). OCPA-related compounds (table 3) were then added to various end concentrations, and the plates placed on a rotary shaker at 37°C for 3 h. GFP fluorescence levels were measured using a Synergy HT microplate reader (BioTek) using a 400 nm, 30 nm bandpass excitation filter and a 508 nm, 20 nm bandpass emission filter. Data were collected using Gen5 v. 1.05 (Biotek) software. Fluorescence was normalized against cell density and measured by absorbance at 600 nm. The fluorescence ratio was plotted against effector concentration, and apparent Kd of binding was calculated using nonlinear curve fitting to a Hill plot.
# [2] = assigned value, source not stated; cited from earlier work
# CprK K133L = test: In vivo GFPUV-DB7 reporter assay, K133L CprK mutant; assay type: cell-based, Desulfitobacterium hafniense
# Protocol: (§2) Table 1 and figure 3 show the dependence of fluorescence levels on OCPA concentrations for Y76F, G85A, G85P and K133L CprK mutants. […] Compared with the apparent Kd of WT CprK (0.019 ± 0.002 μM) for OCPA, the Y76F mutant has an approximately 500-fold decreased affinity for OCPA. The G85P mutation leads to an even more dramatic 4500-fold decrease, but this is probably not only a consequence of removal of the backbone NH hydrogen bond, but also because of the increased size and restricted conformational freedom of the proline side chain. […] While mutations at position 76 or 85 retain some activity, mutation at position 133 leads to a complete loss of transcriptional activation response. This clearly establishes K133 as the key contributor to the polar network established with the phenol moiety.
# as §1, with “OCPA-related compounds (table 3) were then added to various end concentrations, and the plates placed on a rotary shaker at 37°C for 3 h.” left out, “Data were collected using Gen5 v. 1.05 (Biotek) software.” left out
# CprK Y76F [3] = biological target: CprK Y76F (Desulfitobacterium hafniense, UniProt B8FW11, C200S/Y76F); test: In vivo GFPUV-DB7 reporter assay, Y76F CprK mutant; assay type: cell-based
# Chain of CprK Y76F (Desulfitobacterium hafniense, UniProt B8FW11, C200S/Y76F) (B8FW11 entry or part of it Y76F/C200S): as the sequence (B8FW11 entry or part of it C200S) above, with Y76F counted along it
# Protocol: as §2
# as §1, with “OCPA-related compounds (table 3) were then added to various end concentrations, and the plates placed on a rotary shaker at 37°C for 3 h.” left out, “Data were collected using Gen5 v. 1.05 (Biotek) software.” left out
# CprK G85A = CprK G85A (Desulfitobacterium hafniense, UniProt B8FW11, C200S/G85A); test: In vivo GFPUV-DB7 reporter assay, G85A CprK mutant; assay type: cell-based
# Chain of CprK G85A (B8FW11 entry or part of it G85A/C200S): as the sequence (B8FW11 entry or part of it C200S) above, with G85A counted along it
# Protocol: as §2
# as §1, with “OCPA-related compounds (table 3) were then added to various end concentrations, and the plates placed on a rotary shaker at 37°C for 3 h.” left out, “Data were collected using Gen5 v. 1.05 (Biotek) software.” left out
# CprK G85P = CprK G85P (Desulfitobacterium hafniense, UniProt B8FW11, C200S/G85P); test: In vivo GFPUV-DB7 reporter assay, G85P CprK mutant; assay type: cell-based
# Chain of CprK G85P (B8FW11 entry or part of it G85P/C200S): as the sequence (B8FW11 entry or part of it C200S) above, with G85P counted along it
# Protocol: as §2
# as §1, with “OCPA-related compounds (table 3) were then added to various end concentrations, and the plates placed on a rotary shaker at 37°C for 3 h.” left out, “Data were collected using Gen5 v. 1.05 (Biotek) software.” left out
# CprK [4] = conditions: cited from earlier work
# CprK Y76F [5] = system: CprK Y76F; parameters: method as in PMID 16803881; conditions: previous study; cited from earlier work
SMILES,n (Hill coefficient) (CprK [1]),pKa value of R1 (phenol –OH) [2],apparent Kd (CprK [1]; 3 h),further results
O=[N+]([O-])c1ccc(O)c(Br)c1 [2-bromo-4-nitrophenol],2.1 ± 0.1,–OH (5.5),,
Nc1ccc([N+](=O)[O-])cc1Cl [2-chloro-4-nitroaniline],,,no binding,increase in fluorescence levels (in words) (CprK [1]): No increase
O=[N+]([O-])c1ccc(O)c(Cl)c1 [2-chloro-4-nitrophenol],1.7 ± 0.2,,,
O=[N+]([O-])c1ccc(O)c(F)c1 [2-fluoro-4-nitrophenol],4.7 ± 0.6,–OH (5.7),,
Cc1cc([N+](=O)[O-])ccc1N [2-methyl-4-nitroaniline],,,no binding,
Cc1cc([N+](=O)[O-])ccc1O [2-methyl-4-nitrophenol],1.8 ± 0.1,–OH (7.4),,difference between o-methyl-p-nitrophenol and p-nitrophenol (apparent Kd) (CprK [1]; apparent in vivo Kd): approximately sevenfold
O=C(O)Cc1ccc(O)c(Br)c1 [3-bromo-4-hydroxyphenylacetic acid],3.2 ± 0.5,–OH (8.5),,
O=C(O)Cc1cccc(Cl)c1 [3-chloro-phenylacetic acid],,,no binding,increase in fluorescence levels (in words) (CprK [1]): No increase
O=C(O)Cc1ccc(O)c(F)c1 [3-fluoro-4-hydroxyphenylacetic acid],1.8 ± 0.2,–OH (8.8),,
Nc1ccc([N+](=O)[O-])cc1 [4-nitroaniline],,,no binding,
O=[N+]([O-])c1ccc(O)cc1 [4-nitrophenol],2.8 ± 0.2,–OH (7.2),,
"O=C(O)Cc1ccc(O)cc1 [HPA, 4-hydroxyphenylacetic acid]",2.1 ± 0.2,–OH (10.2),,
"O=C(O)Cc1ccc(O)c(Cl)c1 [OCPA, 3-chloro-4-hydroxyphenylacetic acid]",2.0 ± 0.2,–OH (8.5),,"fold induction at 0.6 µM (CprK [1]; 3 h, read-out: increase in fluorescence levels): ~10; apparent Kd smaller than established Kd values (CprK [1]; pGFPUV-DB7 system vs earlier Kd values): approximately 100 fold; transcriptional activation response (in words) (CprK K133L): complete loss; Kd (apparent) (CprK K133L; in vivo): no response; Kd (CprK Y76F [3]): 10.2 ± 0.9 µM; n (Hill coefficient) (CprK Y76F [3]; in vivo, Y76F mutant): 1.6 ± 0.1; Kd (CprK G85A): 1.03 ± 0.06 µM; n (Hill coefficient) (CprK G85A; in vivo, G85A mutant): 1.5 ± 0.1; Kd (CprK G85P): 86.7 ± 5.8 µM; n (Hill coefficient) (CprK G85P; in vivo, G85P mutant): 1.9 ± 0.3; increase of CprK affinity in the presence of a DNA promoter fragment (CprK [4]): approximately 10 fold; difference in affinity between OCPA and HPA (CprK [4]; estimated from indirect in vitro measurements): ~10^4; Kd (CprK [4]; previously reported in vitro): 0.8 to 3.5 µM; decrease in the Kd caused by the Y76F mutation (CprK Y76F [5]): approximately 10 fold"
